“And” between values parts separate entries of the source, which are not always exact repeats. Equal values may be shown once. Blank lines part the entries; values can stand above or below the molecule they belong to.
Assays:
A549 [1] = experiment: cells; conditions: Homo sapiens
Description: Antiproliferative activity against human A549 cells assessed as cell growth inhibition by MTT assay

NCI-H1975 = experiment: Antiproliferative activity against human NCI-H1975 cells assessed as cell growth inhibition by MTT assay; type: functional, cell-based
A-431 [2] = experiment: Antiproliferative activity against human A-431 cells assessed as cell growth inhibition by MTT assay; type: functional, cell-based
SW480 = experiment: Antiproliferative activity against human SW480 cells assessed as cell growth inhibition by MTT assay; type: functional, cell-based
A-431 [3] = experiment: Antiproliferative activity against human A-431 cells assessed as cell growth inhibition incubated for 24 hrs by MTT assay; type: functional
A549 [4] = experiment: Antiproliferative activity against human A549 cells assessed as cell growth inhibition incubated for 24 hrs by MTT assay; type: functional, cell-based; conditions: A549, 24 h
cells = type: functional, cell-based; conditions: Homo sapiens, HBE, 72 h
Description: Antiproliferative activity against human HBE cells assessed as cell growth inhibition incubated for 72 hrs by MTT assay

A-431 [5] = experiment: cells; type: functional, cell-based; conditions: Homo sapiens, A-431, 72 h
Description: Antiproliferative activity against human A-431 cells assessed as cell growth inhibition incubated for 72 hrs by MTT assay

A549 [6] = experiment: cells; type: functional, cell-based; conditions: Homo sapiens, A549, 72 h
Description: Antiproliferative activity against human A549 cells assessed as cell growth inhibition incubated for 72 hrs by MTT assay

A549 [7] = experiment: Induction of apoptosis in human A549 cells measured after 48 hrs by Annexin V-FITC/ Propidium iodide staining based flow cytometry relative to control; type: functional
Caspase-3 (Homo sapiens) = Caspase-3 (Homo sapiens) (UniProt P42574); experiment: Activation of caspase 3 (unknown origin); conditions: filed as activator
MDA-MB-231 [8] = experiment: Antiproliferative activity against human MDA-MB-231 cells assessed as cell growth inhibition incubated for 48 hrs by MTT assay; type: functional, cell-based; conditions: MDA-MB-231, 48 h
A-431 [9] = experiment: cells; type: functional, cell-based; conditions: Homo sapiens, A-431, 48 h
Description: Antiproliferative activity against human A-431 cells assessed as cell growth inhibition incubated for 48 hrs by MTT assay

[10] = molecular target: T1, Epidermal growth factor receptor (Homo sapiens, UniProt P00533)
A549 [11] = experiment: cells; type: functional, cell-based; conditions: Homo sapiens, A549, 48 h
Description: Antiproliferative activity against human A549 cells assessed as cell growth inhibition incubated for 48 hrs by MTT assay

A549 [12] = experiment: Anticancer activity against human A549 cells assessed as cell growth inhibition incubated for 24 hrs by MTT assay; type: functional, cell-based; conditions: A549, 24 h
[13] = molecular target: T2, Receptor tyrosine-protein kinase erbB-2 (Homo sapiens, UniProt P04626)
[14] = molecular target: T1, Epidermal growth factor receptor; experiment: Inhibition of human EGFR incubated for 1 hrs in presence of ATP by ELISA assay
[15] = molecular target: Epidermal growth factor receptor (Homo sapiens, UniProt P00533, T790M/L858R); experiment: Inhibition of EGFR L858R/T790M mutant (unknown origin) incubated for 10 mins in presence of ATP by mobility shift assay
MCF7 = experiment: Antiproliferative activity against human MCF7 cells assessed as cell growth inhibition incubated for 72 hrs by MTT assay; type: functional, cell-based; conditions: MCF7, 72 h
[16] = molecular target: T1, Epidermal growth factor receptor; experiment: Inhibition of EGFR (unknown origin) incubated for 10 mins in presence of ATP by mobility shift assay
HepG2 [17] = experiment: Antiproliferative activity against human HepG2 cells assessed as cell growth inhibition incubated for 72 hrs by MTT assay; type: functional, cell-based; conditions: HepG2, 72 h
PC-3 = experiment: Antiproliferative activity against human PC-3 cells assessed as cell growth inhibition incubated for 72 hrs by MTT assay; type: functional, cell-based; conditions: PC-3, 72 h
A549 [18] = experiment: Induction of apoptosis in human A549 cells assessed as late apoptotic cells measured after 48 hrs by Annexin V-FITC/ Propidium iodide staining based flow cytometry relative to control; type: functional
HT-29 [19] = experiment: Antiproliferative activity against human HT-29 cells assessed as cell growth inhibition incubated for 72 hrs by MTT assay; type: functional, cell-based; conditions: Homo sapiens, HT-29, 72 h
MDA-MB-231 [20] = experiment: cells; conditions: Homo sapiens, MDA-MB-231, 72 h
Description: Antiproliferative activity against human MDA-MB-231 cells assessed as cell growth inhibition incubated for 72 hrs by MTT assay

NCI-H460 = experiment: Antiproliferative activity against human NCI-H460 cells assessed as cell growth inhibition incubated for 72 hrs by MTT assay; type: functional, cell-based; conditions: NCI-H460, 72 h
[21] = molecular target: T3, Vascular endothelial growth factor receptor 2 (Homo sapiens, UniProt P35968)
K562 = experiment: Antiproliferative activity against human K562 cells assessed as cell growth inhibition incubated for 72 hrs by MTT assay; type: functional, cell-based; conditions: K562, 72 h
[22] = molecular target: T1, Epidermal growth factor receptor; remark: listed apart in the source
MRC5 = experiment: Antiproliferative activity against human MRC5 cells assessed as cell growth inhibition incubated for 72 hrs by MTT assay; type: functional, cell-based; conditions: MRC5, 72 h
[23] = molecular target: T2, Receptor tyrosine-protein kinase erbB-2; experiment: Inhibition of human HER2
HL-60 = experiment: Antiproliferative activity against human HL-60 cells assessed as cell growth inhibition incubated for 72 hrs by MTT assay; type: functional, cell-based
[24] = molecular target: T3, Vascular endothelial growth factor receptor 2; remark: listed apart in the source
Description: Inhibition of VEGFR2 (unknown origin)

HepG2 [25] = experiment: cells; type: functional, cell-based; conditions: Homo sapiens, HepG2, 48 h
Description: Antiproliferative activity against human HepG2 cells assessed as cell growth inhibition incubated for 48 hrs by MTT assay

HT-29 [26] = experiment: Antiproliferative activity against human HT-29 cells assessed as cell growth inhibition incubated for 72 hrs under hypoxia condition by SRB assay; type: functional, cell-based; conditions: HT-29, 72 h
A549 [27] = experiment: Antiproliferative activity against human A549 cells assessed as cell growth inhibition incubated for 72 hrs under normoxia condition by SRB assay; type: functional, cell-based; conditions: A549, 72 h
A549 [28] = experiment: Antiproliferative activity against human A549 cells assessed as cell growth inhibition incubated for 72 hrs under hypoxia condition by SRB assay; type: functional, cell-based; conditions: A549, 72 h
HT-29 [29] = experiment: Antiproliferative activity against human HT-29 cells assessed as cell growth inhibition incubated for 72 hrs under normoxia condition by SRB assay; type: functional, cell-based; conditions: HT-29, 72 h

T1 sequence (P00533 whole entry): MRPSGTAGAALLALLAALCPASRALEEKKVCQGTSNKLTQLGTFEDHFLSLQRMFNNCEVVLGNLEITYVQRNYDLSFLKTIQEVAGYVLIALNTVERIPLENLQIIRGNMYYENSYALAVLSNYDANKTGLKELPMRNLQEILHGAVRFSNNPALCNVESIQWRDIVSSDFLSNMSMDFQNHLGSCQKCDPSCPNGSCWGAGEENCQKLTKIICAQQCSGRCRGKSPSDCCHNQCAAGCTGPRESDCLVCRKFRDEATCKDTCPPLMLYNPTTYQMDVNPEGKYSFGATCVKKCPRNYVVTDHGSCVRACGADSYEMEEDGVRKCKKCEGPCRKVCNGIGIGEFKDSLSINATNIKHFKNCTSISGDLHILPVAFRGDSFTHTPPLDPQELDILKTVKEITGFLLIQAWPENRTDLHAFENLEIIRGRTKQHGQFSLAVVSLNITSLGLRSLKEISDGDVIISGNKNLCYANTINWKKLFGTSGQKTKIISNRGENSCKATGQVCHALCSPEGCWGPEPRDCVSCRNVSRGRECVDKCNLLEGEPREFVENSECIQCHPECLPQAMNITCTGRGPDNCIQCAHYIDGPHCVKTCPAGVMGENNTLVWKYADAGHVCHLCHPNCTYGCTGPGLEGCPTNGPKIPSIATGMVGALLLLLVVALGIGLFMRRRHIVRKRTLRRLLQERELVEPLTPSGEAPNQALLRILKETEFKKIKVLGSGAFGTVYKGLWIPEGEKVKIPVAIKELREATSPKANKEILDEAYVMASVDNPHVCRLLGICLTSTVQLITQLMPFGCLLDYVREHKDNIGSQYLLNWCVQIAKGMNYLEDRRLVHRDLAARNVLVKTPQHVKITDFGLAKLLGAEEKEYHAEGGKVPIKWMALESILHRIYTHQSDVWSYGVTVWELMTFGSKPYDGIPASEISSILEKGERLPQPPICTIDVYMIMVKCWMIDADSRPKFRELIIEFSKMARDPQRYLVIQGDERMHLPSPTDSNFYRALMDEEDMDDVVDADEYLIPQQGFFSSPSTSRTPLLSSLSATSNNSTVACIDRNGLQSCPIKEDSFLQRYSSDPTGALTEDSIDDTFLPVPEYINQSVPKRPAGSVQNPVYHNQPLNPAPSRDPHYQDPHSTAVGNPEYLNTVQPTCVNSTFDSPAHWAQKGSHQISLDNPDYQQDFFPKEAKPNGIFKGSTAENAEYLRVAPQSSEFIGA
T3 sequence (P35968 whole entry): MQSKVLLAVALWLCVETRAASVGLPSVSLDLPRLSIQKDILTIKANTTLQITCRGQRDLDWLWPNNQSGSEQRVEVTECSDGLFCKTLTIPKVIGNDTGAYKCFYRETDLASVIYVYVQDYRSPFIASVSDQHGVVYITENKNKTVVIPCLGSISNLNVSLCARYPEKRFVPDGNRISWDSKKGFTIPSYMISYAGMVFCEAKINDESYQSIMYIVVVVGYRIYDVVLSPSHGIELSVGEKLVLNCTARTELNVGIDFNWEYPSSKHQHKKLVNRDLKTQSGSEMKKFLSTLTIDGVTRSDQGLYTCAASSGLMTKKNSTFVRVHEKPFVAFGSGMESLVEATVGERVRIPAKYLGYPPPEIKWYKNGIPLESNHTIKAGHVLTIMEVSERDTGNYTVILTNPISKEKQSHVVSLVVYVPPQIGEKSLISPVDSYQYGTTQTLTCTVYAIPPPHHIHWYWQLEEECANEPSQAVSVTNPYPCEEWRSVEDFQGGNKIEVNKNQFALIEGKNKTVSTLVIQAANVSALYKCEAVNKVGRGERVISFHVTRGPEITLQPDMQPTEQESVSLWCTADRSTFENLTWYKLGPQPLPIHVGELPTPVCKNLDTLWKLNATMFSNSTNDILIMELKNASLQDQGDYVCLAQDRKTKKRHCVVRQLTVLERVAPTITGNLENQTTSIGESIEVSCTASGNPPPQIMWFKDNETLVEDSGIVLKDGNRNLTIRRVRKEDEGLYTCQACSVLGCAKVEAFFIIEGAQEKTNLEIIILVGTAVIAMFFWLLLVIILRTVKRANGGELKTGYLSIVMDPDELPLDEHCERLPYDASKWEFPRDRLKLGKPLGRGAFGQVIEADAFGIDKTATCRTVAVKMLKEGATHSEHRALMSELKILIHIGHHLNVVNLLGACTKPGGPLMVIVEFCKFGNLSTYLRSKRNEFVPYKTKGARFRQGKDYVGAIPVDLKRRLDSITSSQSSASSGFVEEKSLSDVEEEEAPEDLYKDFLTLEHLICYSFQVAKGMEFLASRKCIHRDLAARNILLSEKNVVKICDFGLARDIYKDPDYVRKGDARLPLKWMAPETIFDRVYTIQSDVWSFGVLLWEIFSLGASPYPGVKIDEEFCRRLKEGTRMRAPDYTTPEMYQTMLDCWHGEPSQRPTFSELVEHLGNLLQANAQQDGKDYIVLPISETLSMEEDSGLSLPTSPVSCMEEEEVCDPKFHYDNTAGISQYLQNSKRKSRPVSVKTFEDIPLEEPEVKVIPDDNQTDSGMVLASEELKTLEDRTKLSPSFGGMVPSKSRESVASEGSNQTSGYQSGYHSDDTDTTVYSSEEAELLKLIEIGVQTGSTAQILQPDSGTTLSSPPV
T2 sequence (P04626 whole entry): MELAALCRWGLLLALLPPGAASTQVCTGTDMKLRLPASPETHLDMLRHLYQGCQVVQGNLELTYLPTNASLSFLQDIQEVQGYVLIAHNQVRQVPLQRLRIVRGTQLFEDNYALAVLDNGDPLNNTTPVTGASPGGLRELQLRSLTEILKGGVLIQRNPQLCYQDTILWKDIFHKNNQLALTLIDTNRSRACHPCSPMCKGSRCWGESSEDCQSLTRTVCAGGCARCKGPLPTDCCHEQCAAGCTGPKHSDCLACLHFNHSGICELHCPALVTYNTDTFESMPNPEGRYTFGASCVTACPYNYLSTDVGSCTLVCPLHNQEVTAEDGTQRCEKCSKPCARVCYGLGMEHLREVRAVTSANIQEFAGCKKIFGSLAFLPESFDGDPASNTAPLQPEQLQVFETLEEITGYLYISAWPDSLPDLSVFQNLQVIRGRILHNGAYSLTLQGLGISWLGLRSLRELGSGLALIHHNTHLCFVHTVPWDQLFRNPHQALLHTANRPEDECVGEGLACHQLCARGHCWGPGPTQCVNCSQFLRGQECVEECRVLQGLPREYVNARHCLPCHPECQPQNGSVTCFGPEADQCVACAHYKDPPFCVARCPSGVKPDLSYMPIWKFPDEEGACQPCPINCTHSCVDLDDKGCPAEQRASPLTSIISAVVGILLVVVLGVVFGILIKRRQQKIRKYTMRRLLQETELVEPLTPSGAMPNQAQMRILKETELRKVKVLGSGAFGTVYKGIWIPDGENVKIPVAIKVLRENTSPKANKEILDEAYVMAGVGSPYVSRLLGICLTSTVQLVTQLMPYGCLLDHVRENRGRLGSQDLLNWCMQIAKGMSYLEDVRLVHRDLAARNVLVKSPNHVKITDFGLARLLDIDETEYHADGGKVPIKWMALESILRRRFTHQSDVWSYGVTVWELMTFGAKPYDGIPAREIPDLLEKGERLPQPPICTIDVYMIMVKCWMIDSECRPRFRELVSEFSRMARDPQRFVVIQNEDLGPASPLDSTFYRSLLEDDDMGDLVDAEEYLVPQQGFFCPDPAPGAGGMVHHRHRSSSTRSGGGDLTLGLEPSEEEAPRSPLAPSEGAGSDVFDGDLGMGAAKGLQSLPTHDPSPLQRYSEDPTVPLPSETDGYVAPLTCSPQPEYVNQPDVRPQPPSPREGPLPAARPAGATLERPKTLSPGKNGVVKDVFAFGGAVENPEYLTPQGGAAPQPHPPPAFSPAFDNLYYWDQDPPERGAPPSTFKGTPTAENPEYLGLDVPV
Epidermal growth factor receptor (Homo sapiens, UniProt P00533, T790M/L858R), sequence (P00533 25-1210 T790M/L858R limits assumed): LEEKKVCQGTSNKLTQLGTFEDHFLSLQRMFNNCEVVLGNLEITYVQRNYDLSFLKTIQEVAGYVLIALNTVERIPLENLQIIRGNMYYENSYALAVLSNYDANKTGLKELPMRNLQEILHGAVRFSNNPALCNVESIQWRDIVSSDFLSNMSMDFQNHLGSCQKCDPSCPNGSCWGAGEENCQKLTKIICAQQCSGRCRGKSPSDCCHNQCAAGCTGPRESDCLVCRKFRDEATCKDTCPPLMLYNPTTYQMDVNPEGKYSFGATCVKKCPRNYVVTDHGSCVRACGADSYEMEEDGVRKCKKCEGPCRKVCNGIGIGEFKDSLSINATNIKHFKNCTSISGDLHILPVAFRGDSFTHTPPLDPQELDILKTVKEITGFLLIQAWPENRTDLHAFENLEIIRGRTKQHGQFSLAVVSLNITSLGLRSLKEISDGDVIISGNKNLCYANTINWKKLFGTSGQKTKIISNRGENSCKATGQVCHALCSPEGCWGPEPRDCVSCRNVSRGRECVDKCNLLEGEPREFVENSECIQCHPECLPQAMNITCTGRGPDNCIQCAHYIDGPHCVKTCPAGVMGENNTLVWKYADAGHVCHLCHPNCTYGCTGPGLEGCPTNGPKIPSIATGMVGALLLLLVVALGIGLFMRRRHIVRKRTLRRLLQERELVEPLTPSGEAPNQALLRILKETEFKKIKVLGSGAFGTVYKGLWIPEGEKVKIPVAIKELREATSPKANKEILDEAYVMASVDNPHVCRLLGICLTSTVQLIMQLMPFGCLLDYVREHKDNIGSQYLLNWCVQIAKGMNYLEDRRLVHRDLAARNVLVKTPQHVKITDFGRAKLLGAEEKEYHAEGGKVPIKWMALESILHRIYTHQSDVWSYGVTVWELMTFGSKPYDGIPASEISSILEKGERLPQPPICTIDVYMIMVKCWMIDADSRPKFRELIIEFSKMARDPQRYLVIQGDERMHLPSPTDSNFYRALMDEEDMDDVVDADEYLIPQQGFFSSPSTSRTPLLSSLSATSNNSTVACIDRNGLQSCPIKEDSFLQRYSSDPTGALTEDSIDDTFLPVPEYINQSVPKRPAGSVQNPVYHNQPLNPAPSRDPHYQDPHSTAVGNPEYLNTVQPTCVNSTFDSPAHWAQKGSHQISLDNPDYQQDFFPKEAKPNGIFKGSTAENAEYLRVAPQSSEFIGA

Structure (SMILES): COc1cc2ncnc(NCc3ccc(Cl)s3)c2cc1OC
IC5 (A-431 [3]): 3.4 µM
IC50 (A549 [4]): > 50 µM

Structure (SMILES): C#Cc1cccc(Nc2ncnc3cc(OCCOC)c(OCCOC)cc23)c1 [ERLOTINIB]
Activity (A549 [7]): 53.9%
Activity (Caspase-3 (Homo sapiens)): 480 pg/mL
IC5 (A-431 [3]): 3 µM

Structure (SMILES): CCCN(c1ccc(F)c(Cl)c1)c1ncnc2cc(OC)c(OCCCN3CCOCC3)cc12
IC50 (MDA-MB-231 [8]): 10.2 µM
IC50 (A-431 [9]): 1680 nM
IC50 [10]: 21.4 nM
IC50 (A549 [11]): 10.9 µM

Structure (SMILES): CN(C)CCn1cccc1/C=N/NC(=O)Nc1cc2c(Nc3ccc(F)c(Cl)c3)ncnc2cc1O[C@H]1CCOC1
IC50 [15]: 5.6 nM
IC50 (A549 [6]): 1840 nM
IC50 (MCF7): 4820 nM
IC50 [16]: 0.05 nM
IC50 (HepG2 [17]): 40 nM
IC50 (PC-3): 3.84 µM

Structure (SMILES): CN(C)C/C=C/C(=O)Nc1cc2c(Nc3ccc(F)c(Cl)c3)ncnc2cc1O[C@H]1CCOC1 [AFATINIB]
Activity (A549 [18]): 13.53%

Structure (SMILES): O=C(O)c1cc(O)c2c(c1)C(=O)c1cccc(O)c1C2=O [RHEIN]
IC50 (HepG2 [25]): 74.6 µM
IC50 (A549 [11]): 138 µM

Second part, led by results:

IC50 (A549 [1]): 5.46 µM
IC50 (NCI-H1975): 9.79 µM
IC50 (A-431 [2]): 2210 nM
IC50 (SW480): 6.67 µM
Structure (SMILES): CCN(CC)CCNCc1ccc(-c2ccc3ncnc(Nc4ccc(OCc5cccc(F)c5)c(Cl)c4)c3c2)o1

IC50 (cells): > 40 µM
IC50 (A-431 [5]): 1290 nM
IC50 (A549 [6]): 6500 nM
Structure (SMILES): C=CC(=O)Nc1cccc(Nc2nc(Nc3ccc(N4CCN(C(C)=O)CC4)cc3OC)ncc2C(F)(F)F)c1 [ROCILETINIB]

IC50 (A549 [12]): 105 nM
IC50 [13]: 21 nM
IC50 [14]: 9 nM
Structure (SMILES): Cc1ccc(NC(=O)CSc2nc3cc4ccccc4cc3c(=O)n2-c2ccc(S(N)(=O)=O)cc2)cc1

IC50 (HT-29 [19]): 150 nM
IC50 (MDA-MB-231 [20]): 750 nM
IC50 (NCI-H460): 89 nM
IC50 (A549 [6]): 360 nM
IC50 [21]: 93 nM
Structure (SMILES): Cc1cccc(Cl)c1NC(=O)Nc1ccc(-c2nc(NCCN(C)C)c3ccccc3n2)cc1

IC50 (K562): 2030 nM
IC50 (HT-29 [19]): 1430 nM
IC50 [22]: 200 nM
IC50 [23]: 170 nM
IC50 (HL-60): 410 nM and 2030 nM
IC50 [24]: 390 nM
IC50 (MCF7): 1040 nM
Structure (SMILES): NS(=O)(=O)c1ccc(CCn2c(SCC(=O)Nc3ccc(Cl)cc3)nc3ccccc3c2=O)cc1
IC50 (MRC5): 3.77 µM

IC50 (A549 [1]): 14.9 µM
IC50 (HT-29 [26]): 8.85 µM
IC50 (A549 [27]): 11.3 µM
IC50 (A549 [28]): 13.3 µM
IC50 (HT-29 [29]): 6.81 µM
Structure (SMILES): CS(=O)(=O)CCNCc1ccc(-c2ccc3ncnc(Nc4ccc(OCc5cccc(F)c5)c(Cl)c4)c3c2)o1 [LAPATINIB]

From ChEMBL document CHEMBL5230100, “Novel quinazoline-based EGFR kinase inhibitors: A review focussing on SAR and molecular docking studies (2015-2019)” (Eur J Med Chem, 2020)
